Values quoted from earlier work as cited in patent US20030064909A1, “Laundry detergent and/or fabric care compositions comprising a transferase” (The Procter & Gamble Company, priority 1998, published 2003).

SMILES	solubility in water
CC(C)(O)C(Cl)(Cl)Cl [chlorobutanol, 1,1,1-Trichloro-2-methylpropan-2-ol, reference compound]	about 0.8%
OCCOc1ccccc1 [2-phenoxyethanol]	about 2.67%
OCc1ccccc1 [benzyl alcohol]	about 4%
O=[N+]([O-])C1(Br)COCOC1 [Bronidox L, 5-bromo-5-nitro-1,3-dioxane]	about 0.46%
[Na+].[O-][n+]1ccccc1[S-] [sodium pyrithione]	about 50%
CC1(C)C(=O)N(CO)C(=O)N1CO [DMDM hydantoin, 1,3-bis(hydroxymethyl)-5,5-dimethyl-2,4-imidazolidinedione]	more than 50%
O=[N+]([O-])C(Br)(CO)CO [Bronopol, 2-bromo-2-nitropropane-1,3-diol]	about 25%
OCCc1ccccc1 [2-phenylethanol]	about 2%
[H]/N=C(\N/C(=N/[H])NCCCCCCNC(=N)NC(=N)Nc1ccc(Cl)cc1)Nc1ccc(Cl)cc1 [chlorhexidine diacetate, 1,1′-hexamethylene bis(5-(p-chlorophenyl)biguanide), reference compound]	about 1.8%
ClC=CC[N+]12CN3CN(CN(C3)C1)C2.[Cl-] [Dowicil 200, 1-(3-Chlorallyl) -3,5,7-triaza-1-azoniaadamantane chloride]	freely soluble in water
[H]/N=C(\N/C(=N/[H])NCCCCCCNC(=N)NC(=N)Nc1ccc(Cl)cc1)Nc1ccc(Cl)cc1 [chlorhexidine digluconate, 1,1′-hexamethylene bis(5-(p-chlorophenyl)biguanide), reference compound]	about 70%
